Assay [1] has as its system glucagon. The note with it: rats, nembutal 50 mg/kg i.p., compound subcutaneously 3100 μg/kg, blood 15 minutes after injection; control 10.5 ± 2. The protocol:
(§1) The effect on glucagon, growth hormone and insulin levels of the compound of Example 7 was determined by injecting rats weighing about 200-240 g first with nembutal intraperitoneally at a dose of 50 mg/kg then after 5 minutes injecting the rats subcutaneously with a solution of the compound of Example 7 in saline at a dose of 3.1 mg/kg per rat. Blood samples are taken 15 minutes after injection with the compound of Example 7. The glucagon, growth hormone and insulin levels were determined by radioimmunoassay.

In assay [2] the test system is growth hormone. Description: In vivo effect on growth hormone levels in nembutal-treated rats, radioimmunoassay. To be noted: nembutal 50 mg/kg i.p., compound subcutaneously 3100 μg/kg, blood 15 minutes after injection, control 296 ± 25. The protocol: as §1
For assay [3], the system named is insulin. The experiment in a line: In vivo effect on insulin levels in nembutal-treated rats, radioimmunoassay. The note with it: nembutal 50 mg/kg i.p., compound subcutaneously 3100 μg/kg, blood 15 minutes after injection, control 171 ± 4. The protocol: as §1

Substance “L-Lysyl-L-lysyl-L-asparaginyl-L-phenylalanyl-L-phenylalanyl-L-tryptophyl-L-lysyl-L-threonyl-L-phenylalanyl-L-threonyl-L-seryl-L-aspartic acid cyclic (12β→1ε)-peptide, triacetate [Example 7]” showed a Glucagon in assay [1] of 3.3 pg/mL. In assay [2], the GH is on record as 227 ± 32 ng/kg. The same substance came in with an Insulin in assay [3] of 182 ± 16 μU/ml.

The values are drawn from patent US4000259A, “Cyclic dodecapeptide analogs of somatostatin and intermediates” (American Home Products Corporation, priority 1975, dated 1976).
